Test results as given in patent US8188102B2, “Amide derivative for inhibiting the growth of cancer cells” (Hanmi Holdings Co., Ltd., priority 2007, dated 2012).

What was measured:
[1] = test system: A431 skin cancer cell line; assay: Cancer cell growth inhibition, A431 (SRB); conditions: Homo sapiens, A-431, 72 h, read-out: ID50 (nM) A431
[2] = test system: SK-Br3 breast cancer cell line; assay: Cancer cell growth inhibition, SK-Br3 (SRB); conditions: Homo sapiens, SK-BR-3, 72 h, read-out: ID50 (nM) SK-Br3

IC50 [1] [nM]	IC50 [2] [nM]	Compound
8	2	C=CC(=O)N1CCC(Oc2cc3c(Nc4ccc(F)c(C)c4)ncnc3cc2OC)CC1 [Example 46, 1-(4-(4-(4-fluoro-3-methylphenylamino)-7-methoxyquinazolin-6-yloxy)piperidin-1-yl)pro-2-pen-1-one]
514	3	C=CC(=O)N1CCC(Oc2cc3c(N[C@H](C)c4ccccc4)ncnc3cc2OC)CC1 [Example 35, (R)-1-(4-(7-methoxy-4-(1-phenylethylamino)quinazolin-6-yloxy)piperidin-1-yl)pro-2-pen-1-one]
129	37	C=CC(=O)N1CCC(Oc2cc3c(Nc4ccc(O)c(F)c4)ncnc3cc2OC)CC1 [Example 79, 1-(4-(4-(3-fluoro-4-hydroxyphenylamino)-7-methoxyquinazolin-6-yloxy)piperidin-1-yl)prop-2-en-1-one]
3.7	0.7	C=CC(=O)N1CCC(Oc2cc3c(Nc4cccc(C#N)c4)ncnc3cc2OC)CC1 [Example 56, 3-(6-(1-acryloylpiperidin-4-yloxy)-7-methoxyquinazolin-4-ylamino)benzonitrile]
1.7	1.3	C=CC(=O)N1CC[C@@H](Oc2cc3c(Nc4ccc(F)c(Cl)c4F)ncnc3cc2OC)C[C@@H]1C(=O)NO [Example 137, (2R,4R)-1-acryloyl-4-(4-(3-chloro-2,4-difluorophenylamino)-7-methoxyquinazolin-6-yloxy)-N-hydroxypiperidin-2-carboxamide]
23	37	C=CC(=O)N1CCC(Oc2cc3c(Nc4ccc(C(C)C)cc4)ncnc3cc2OC)CC1 [Example 40, 1-(4-(4-(4-isopropylphenylamino)-7-methoxyquinazolin-6-yloxy)piperidin-1-yl)pro-2-pen-1-one]
222	57	C=CC(=O)N1CC[C@@H](Oc2cc3c(Nc4ccc(F)c(Cl)c4F)ncnc3cc2OC)C1 [Example 20]
41	262	CNC(=O)/C=C/C(=O)N1CC(Oc2cc3c(Nc4ccc(F)c(Cl)c4F)ncnc3cc2OC)C1 [Example 28, (E)-4-(3-(4-(3-chloro-2,4-difluorophenylamino)-7-methoxyquinazolin-6-yloxy)azetidin-1-yl)-N-methyl-4-oxobut-2-ene amide]
7	6	C=CC(=O)N1CCC(Oc2cc3c(Nc4ccc(Br)c(F)c4)ncnc3cc2OC)CC1 [Example 62, 1-(4-(4-(4-bromo-3-fluorophenylamino)-7-methoxyquinazolin-6-yloxy)piperidin-1-yl)pro-2-pen-1-one]
9	23	COC(=O)/C=C\C(=O)N1CCC(Oc2cc3c(Nc4ccc(F)c(Cl)c4F)ncnc3cc2OC)CC1 [Example 83, (Z)-methyl 4-(4-(4-(3-chloro-2,4-difluorophenylamino)-7-methoxyquinazolin-6-yloxy)piperidin-1-yl)-4-oxobut-2-enoate]
4	8	COc1cc2ncnc(Nc3ccc(F)c(Cl)c3F)c2cc1O[C@H]1CCN(C(=O)/C=C/CN(C)C)C1 [Example 92, (E)-1-((3S)-3-(4-(3-chloro-2,4-difluorophenylamino)-7-methoxyquinazolin-6-yloxy)pyrrolidin-1-yl)-4-(dimethylamino)but-2-en-1-one]
38	141	COc1cc2ncnc(Nc3ccc(F)c(Cl)c3F)c2cc1OC1CCN(C(=O)C=C(C)C)CC1 [Example 81, 1-(4-(4-(3-chloro-2,4-difluorophenylamino)-7-methoxyquinazolin-6-yloxy)piperidin-1-yl)-3-methylbut-2-en-1-one]
305	10	C=CC(=O)N1CCC(Oc2cc3c(Nc4cccc(SC)c4)ncnc3cc2OC)CC1 [Example 68, 1-(4-(7-methoxy-4-(3-(methylthio)phenylamino)quinazolin-6-yloxy)piperidin-1-yl)pro-2-pen-1-one]
8	46	COc1cc2ncnc(Nc3cccc(Cl)c3F)c2cc1O[C@H]1CCN(C(=O)/C=C/CN(C)C)C1 [Example 96, (E)-1-((3S)-3-(4-(3-chloro-2-fluorophenylamino)-7-methoxyquinazolin-6-yloxy)pyrrolidin-1-yl)-4-(dimethylamino)but-2-en-1-one]
28	40	CCN(CC)C/C=C/C(=O)N1CC[C@H](Oc2cc3c(Nc4ccc(F)c(Cl)c4F)ncnc3cc2OC)C1 [Example 93, (E)-1-((3S)-3-(4-(3-chloro-2,4-difluorophenylamino)-7-methoxyquinazolin-6-yloxy)pyrrolidin-1-yl)-4-(diethylamino)but-2-en-1-one]
516	469	COc1cc2ncnc(Nc3ccc(Cl)c(Cl)c3F)c2cc1OC1CCN(C(=O)/C=C/C(=O)O)CC1 [Example 87, (E)-4-(4-(4-(3,4-dichloro-2-fluorophenylamino)-7-methoxyquinazolin-6-yloxy)piperidin-1-yl)-4-oxobut-2-enoic acid]

IC50 [1] [nM]	IC50 [2] [nM]	Compound
8	1	C=CC(=O)N1CCC(Oc2cc3c(Nc4ccc(F)c(C#N)c4)ncnc3cc2OC)CC1 [Example 66, 5-(6-(1-acryloylpiperidin-4-yloxy)-7-methoxyquinazolin-4-ylamino)-2-fluorobenzonitrile]
85	316	C/C=C/C(=O)N1CC[C@H](Oc2cc3c(Nc4ccc(F)c(Cl)c4F)ncnc3cc2OC)C1 [Example 2, (E)-1-((3S)-3-(4-(3-chloro-2,4-difluorophenylamino)-7-methoxyquinazolin-6-yloxy)pyrrolidin-1-yl)but-2-en-1-one]
8	23	COc1cc2ncnc(Nc3ccc(F)c(Cl)c3F)c2cc1O[C@H]1CCN(C(=O)/C=C/CN2CCCC2)C1 [Example 95, (E)-1-((3S)-3-(4-(3-chloro-2,4-difluorophenylamino)-7-methoxyquinazolin-6-yloxy)pyrrolidin-1-yl)-4-(pyrrolidin-1-yl)but-2-en-1-one]
322	> 1000	COc1cc2ncnc(Nc3ccc(Cl)c(Cl)c3F)c2cc1OC1CCN(C(=O)/C=C\C(=O)O)CC1 [Example 86, (Z)-4-(4-(4-(3,4-dichloro-2-fluorophenylamino)-7-methoxyquinazolin-6-yloxy)piperidin-1-yl)-4-oxobut-2-enoic acid]
44	35	COc1cc2ncnc(Nc3ccc(F)c(Cl)c3F)c2cc1OC1CN(C(=O)/C=C/Cl)C1 [Example 33, (E)-3-chloro-1-(3-(4-(3-chloro-2,4-difluorophenylamino)-7-methoxyquinazolin-6-yloxy)azetidin-1-yl)pro-2-pen-1-one]
93	261	C=CC(=O)N1CCC(Oc2cc3c(Nc4ccc(Cl)c(C)c4)ncnc3cc2OC)CC1 [Example 60, 1-(4-(4-(4-chloro-3-methylphenylamino)-7-methoxyquinazolin-6-yloxy)piperidin-1-yl)pro-2-pen-1-one]
44	274	C=C(CO)C(=O)N1CCC(Oc2cc3c(Nc4ccc(Cl)c(Cl)c4F)ncnc3cc2OC)CC1 [Example 114, 1-(4-(4-(3,4-dichloro-2-fluorophenylamino)-7-methoxyquinazolin-6-yloxy)piperidin-1-yl)-2-(hydroxymethyl)prop-2-en-1-one]
36	11	COc1cc2ncnc(Nc3ccc(F)c(Cl)c3F)c2cc1OC1CN(C(=O)/C=C/CN(C)C)C1 [Example 101, (E)-1-(3-(4-(3-chloro-2,4-difluorophenylamino)-7-methoxyquinazolin-6-yloxy)azetidin-1-yl)-4-(dimethylamino)but-2-en-1-one]
33	128	COc1cc2ncnc(Nc3ccc(F)c(Cl)c3F)c2cc1O[C@H]1CCN(C(=O)C#CCN(C)C)C1 [Example 5, 1-((3S)-3-(4-(3-chloro-2,4-difluorophenylamino)-7-methoxyquinazolin-6-yloxy)pyrrolidin-1-yl)-4-(dimethylamino)but-2-yn-1-one]
76	15	COc1cc2ncnc(Nc3cccc(Cl)c3F)c2cc1OC1CCN(C(=O)/C=C/CN(C)C)CC1 [Example 100, (E)-1-(4-(4-(3-chloro-2-fluorophenylamino)-7-methoxyquinazolin-6-yloxy)piperidin-1-yl)-4-(dimethylamino)but-2-en-1-one]
699	210	C=CC(=O)NCCOc1cc2c(Nc3ccc(F)c(Cl)c3F)ncnc2cc1OC [Example 21, N-(2-(4-(3-chloro-2,4-difluorophenylamino)-7-methoxyquinazolin-6-yloxy)ethyl)acrylamide]
52	79	C#Cc1cccc(Nc2ncnc3cc(OC)c(OC4CCN(C(=O)C=C)CC4)cc23)c1 [Example 37, 1-(4-(4-(3-ethynylphenylamino)-7-methoxyquinazolin-6-yloxy)piperidin-1-yl)pro-2-pen-1-one]
3	9	C=CC(=O)N1CCC(Oc2cc3c(Nc4cccc(Cl)c4OC)ncnc3cc2OC)CC1 [Example 59, 1-(4-(4-(3-chloro-2-methoxyphenylamino)-7-methoxyquinazolin-6-yloxy)piperidin-1-yl)pro-2-pen-1-one]
50	194	C=C(NC(C)=O)C(=O)N1CCC(Oc2cc3c(Nc4ccc(Cl)c(Cl)c4F)ncnc3cc2OC)CC1 [Example 91, N-(3-(4-(4-(3,4-dichloro-2-fluorophenylamino)-7-methoxyquinazolin-6-yloxy)piperidin-1-yl)-3-oxoprop-1-en-2-yl)acetamide]
15	58	C=CC(=O)N1CC[C@H](Oc2cc3c(Nc4ccc(Br)cc4F)ncnc3cc2OC)C1 [Example 9, 1-((3S)-3-(4-(4-bromo-2-fluorophenylamino)-7-methoxyquinazolin-6-yloxy)pyrrolidin-1-yl)pro-2-pen-1-one]
35	10	C=CC(=O)N1CCC(Oc2cc3c(Nc4ccc(Cl)c(C#N)c4)ncnc3cc2OC)CC1 [Example 67, 5-(6-(1-acryloylpiperidin-4-yloxy)-7-methoxyquinazolin-4-ylamino)-2-chlorobenzonitrile]
